Calls of active or inactive are those of the source. The rule behind the calls is not given here.
Legend:
[1] = system: Influenza A virus; assay: Antiviral activity against Influenza A virus A/California/7/2009(H1N1) strain infected in MDCK cells assessed as reduction in viral infection incubated for 48 hrs by crystal violet staining based assay; format: functional, organism-based
[2] = system: HEK293T; assay: (§1) Inhibition of Influenza A virus RNA dependent RNA polymerase activity in HEK293T cells co-transfected with pPoll/NP(0)GFP(0) assessed as reduction on number of GFP positive cells at 10 nM after 2 hrs post-transfection followed by compound addition incubated for 22 hrs by fluorescence microscopic analysis; format: cell-based
[3] = system: Influenza A virus; assay: Antiviral activity against Influenza A virus A/WSN/33(H1N1) strain infected in MDCK cells assessed as reduction in viral infection incubated for 48 hrs by crystal violet staining based assay; format: functional, organism-based
[4] = system: Influenza A virus; assay: Antiviral activity against Influenza A virus A/Aichi/8/68(H3N2) strain infected in MDCK cells assessed as reduction in viral infection incubated for 48 hrs by crystal violet staining based assay; format: functional, organism-based
[5] = system: Influenza A virus; assay: Antiviral activity against Influenza A virus A/Puerto Rico/8/34(H1N1) strain infected in MDCK cells assessed as reduction in viral infection incubated for 48 hrs by crystal violet staining based assay; format: functional, organism-based
[6] = system: Influenza A virus; assay: Antiviral activity against Influenza A virus B/Lee/40(type B) strain infected in MDCK cells assessed as reduction in viral infection incubated for 48 hrs by crystal violet staining based assay; format: functional, organism-based
[7] = system: Influenza A virus; assay: Antiviral activity against Influenza A virus A/Virginia/ATCC2/2009(H1N1) strain infected in MDCK cells assessed as reduction in viral infection incubated for 48 hrs by crystal violet staining based assay; format: functional, organism-based
[8] = system: HEK293T; assay: Inhibition of Influenza A virus RNA dependent RNA polymerase activity in HEK293T cells co-transfected with pPoll/NP(0)GFP(0) after 2 hrs post-transfection followed by compound addition incubated for 22 hrs by fluorescence microscopic analysis; format: cell-based
[9] = Cytotoxicity in dog MDCK cells assessed as reduction in cell viability incubated for 48 hrs by crystal violet staining based assay; format: toxicity, Canis lupus familiaris
[10] = system: HEK293T; assay: as §1, with “uM” for “nM”; format: cell-based
[11] = system: HEK293T; assay: Inhibition of Influenza A virus RNA dependent RNA polymerase activity in HEK293T cells co-transfected with pPoll/NP(0)GFP(0) at 10 to 40 uM after 2 hrs post-transfection followed by compound addition incubated for 22 hrs by fluorescence microscopic analysis; format: cell-based; conditions: dose 10-40 µM

Compound | EC50 [1] | inhibition [2] | EC50 [3] | EC50 [4] | EC50 [5] | EC50 [6] | EC50 [7] | inhibition [8] | CC50 at 48 h [9] | inhibition [10] | inhibition [11]
O=C1c2c(O)c(=O)ccn2N([C@@H]2c3ccccc3SCc3c2ccc(F)c3F)[C@@H]2COCCN12 [BALOXAVIR] | 0.004 µM | Active | 0.003 µM | 0.004 µM | 0.007 µM | 0.17 µM | 0.006 µM |  |  |  | 
COc1ccc2[nH]c(=O)c(CN(Cc3ccc(C(C)(C)C)cc3)C(C)c3ccc(OC)c(Cl)c3)cc2c1 (centres undefined) | 0.23 µM |  | 0.061 µM | 0.085 µM | 0.072 µM | 0.079 µM | 0.077 µM | Active | > 10 µM | Active | 
CCOC(=O)C1=C[C@@H](OC(CC)CC)[C@H](NC(C)=O)[C@@H](N)C1 [OSELTAMIVIR PHOSPHATE] | 4.62 µM |  | 2.01 µM | 2.25 µM | 11.6 µM |  | 18.5 µM |  |  |  | inactive
CCC(C)(C)n1nnnc1C(c1cc2cccc(C)c2[nH]c1=O)N(Cc1ccccc1)Cc1ccc(F)cc1 (centres undefined) |  |  | 0.57 µM |  |  |  |  |  | > 83 µM |  | Dose-Dependent Effect
C[C@@H](c1ccc(OC(F)(F)F)cc1)N(Cc1ccc(C(C)(C)C)cc1)Cc1cc2cc(C3CC3)ccc2[nH]c1=O | 0.27 µM |  | 0.077 µM | 0.072 µM | 0.067 µM | 0.23 µM | 0.064 µM | Active | > 10 µM | Active | 
CCc1ccc2[nH]c(=O)c(CN(Cc3ccc(C(C)(C)C)cc3)[C@@H](C)c3ccc(OC)cc3)cc2c1 |  |  | 0.103 µM |  |  |  |  | Active | > 5 µM | Active | Dose-Dependent Effect
